tested on: C6/36 Aedes albopictus cell line infected with Wolbachia pipientis (Wolbachia strain wAlbB); assay: In vitro insect cell line assay (anti-Wolbachia screen, SYTO 11 high content imaging); format: cell-based; conditions: 168 h; C6/36 Aedes albopictus cells infected with Wolbachia pipientis wAlbB, 7 days incubation, SYTO 11 imaging; read-out: In vitro anti-Wolbachia activity
In short: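 SYTO 11 staining (15 min), high-content imaging and texture analysis were the read-out on day 7. Before that, C6/36 mosquito cells carrying Wolbachia strain wAlbB were incubated at 26 °C with test compound at 5 μM final, alongside DMSO-only control wells.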

CC1CN(c2nc(NCc3cccnc3C(F)(F)F)c3cccnc3n2)C[C@H](C)O1 (stereo partly drawn) [Example 254, 2-((6S)-2,6-dimethylmorpholino)-N-((2-(trifluoromethyl)pyridin-3-yl)methyl)pyrido[2,3-d]pyrimidin-4-amine] and C[C@H]1CN(c2nc(NCc3cccnc3C(F)(F)F)c3cccnc3n2)[C@@H](C)CO1 [Example 279, 2-((2S,5S)-2,5-dimethylmorpholino)-N-((2-(trifluoromethyl)pyridin-3-yl)methyl)pyrido[2,3-d]pyrimidin-4-amine] fall in the same range of EC50: 0.01 to 1 nM for the first, 0.01 to 1 nM for the second.

First: FC1(F)CCN(c2nc(N3CCC3c3ccccc3C(F)(F)F)c3cccnc3n2)CC1 (centres unmarked) [Example 213, 2-(4,4-difluoropiperidin-1-yl)-4-(2-(2-(trifluoromethyl)phenyl)azetidin-1-yl)pyrido[2,3-d]pyrimidine]
Second: CC(C)Nc1nc(N2CCC2c2ccccc2C(F)(F)F)c2cccnc2n1 (centres unmarked) [Example 183, N-isopropyl-4-(2-(2-(trifluoromethyl)phenyl)azetidin-1-yl)pyrido[2,3-d]pyrimidin-2-amine]
The EC50 of the first is higher: 10 to 100 nM for the first, 1 to 10 nM for the second. The second is the more potent here.

O=C(Nc1ncnc2ccsc12)c1ccccc1Cl [Example 40, 2-chloro-N-(thieno[3,2-d]pyrimidin-4-yl)benzamide] and Cc1ccc(Nc2ncnc3ccsc23)c(C)c1 [Example 31, N-(2,4-dimethylphenyl)thieno[3,2-d]pyrimidin-4-amine] fall in the same range of EC50: 1000 to 100000 nM for the first, 1000 to 100000 nM for the second.

FC(F)(F)c1ccccc1CNc1nc(N2CC3CC2CO3)nc2ncccc12 (centres unmarked) [Example 267, 2-(2-oxa-5-azabicyclo[2.2.1]heptan-5-yl)-N-(2-(trifluoromethyl)benzyl)pyrido[2,3-d]pyrimidin-4-amine] and C[C@H]1COCCN1c1nc(NCc2ccccc2C(F)(F)F)c2cccnc2n1 [Example 208, (S)-2-(3-methylmorpholino)-N-(2-(trifluoromethyl)benzyl)pyrido[2,3-d]pyrimidin-4-amine] cannot be ordered by EC50: < 0.01 nM for the first, < 0.01 nM for the second.

First: FC(F)(F)c1ncccc1CNc1nc(N2CCC(Cl)CC2)nc2ncccc12 [Example 199, 2-(4-chloropiperidin-1-yl)-N-((2-(trifluoromethyl)pyridin-3-yl)methyl)pyrido[2,3-d]pyrimidin-4-amine]
Second: FC(F)(F)c1ncccc1CNc1nc(N2CCOCC2)nc2ncccc12 [Example 192, 2-morpholino-N-((2-(trifluoromethyl)pyridin-3-yl)methyl)pyrido[2,3-d]pyrimidin-4-amine]
The EC50 of the first is lower: 1 to 10 nM for the first, 10 to 100 nM for the second.

CC(C)Nc1nc(NCc2c(F)cccc2C(F)(F)F)c2cccnc2n1 [Example 166, N^4-(2-fluoro-6-(trifluoromethyl)benzyl)-N^2-isopropylpyrido[2,3-d]pyrimidine-2,4-diamine] and CC(C)Nc1nc(NCc2ccc(C(F)(F)F)nc2)c2ccccc2n1 [Example 114, N^2-isopropyl-N^4-((6-(trifluoromethyl)pyridin-3-yl)methyl)quinazoline-2,4-diamine] fall in the same range of EC50: 100 to 1000 nM for the first, 100 to 1000 nM for the second.

Compared with CS(=O)(=O)c1ccccc1CNc1nc(Cl)nc2ccccc12 [Example 113], CC(C)Nc1nc(NCc2ccccc2S(C)(=O)=O)c2ccccc2n1 [Example 112, N^2-isopropyl-N^4-(2-(methylsulfonyl)benzyl)quinazoline-2,4-diamine] is lower in EC50: 1000 to 100000 nM for the first, 100 to 1000 nM for the second. The second is the more potent here.

Compared with CCNC(=O)Nc1nc(NCc2cccnc2C(F)(F)F)c2cccnc2n1 [Example 207, 1-ethyl-3-(4-(((2-(trifluoromethyl)pyridin-3-yl)methyl)amino)pyrido[2,3-d]pyrimidin-2-yl)urea], FC(F)(F)c1ncccc1CNc1ncnc2ncccc12 [Example 170, N-((2-(trifluoromethyl)pyridin-3-yl)methyl)pyrido[2,3-d]pyrimidin-4-amine] is higher in EC50: 100 to 1000 nM for the first, 1000 to 100000 nM for the second.

First: CC(C)Nc1nc(NC(C)c2ccccc2C(F)(F)F)c2sccc2n1 (centres unmarked) [Example 53, N^2-isopropyl-N^4-(1-(2-(trifluoromethyl)phenyl)ethyl)thieno[3,2-d]pyrimidine-2,4-diamine]
Second: Cc1nc(NC(C)c2ccccc2C(F)(F)F)c2sccc2n1 (centres unmarked) [Example 65, 2-methyl-N-(1-(2-(trifluoromethyl)phenyl)ethyl)thieno[3,2-d]pyrimidin-4-amine]
The EC50 of the first is lower: 1 to 10 nM for the first, 10 to 100 nM for the second. The first is the more potent here.

FC(F)(F)c1nc(NCc2ccccc2C(F)(F)F)c2sccc2n1 [Example 56, 2-(trifluoromethyl)-N-(2-(trifluoromethyl)benzyl)thieno(3,2-d]pyrimidin-4-amine] and CC(C)Nc1nc(NCc2ccccc2C(F)(F)F)c2sccc2n1 [Example 28, N^2-isopropyl-N^4-(2-(trifluoromethyl)benzyl)thieno[3,2-d]pyrimidine-2,4-diamine] fall in the same range of EC50: 10 to 100 nM for the first, 10 to 100 nM for the second.

Compared with CC(C)Nc1nc(NCc2ccccc2Cl)c2ccccc2n1 [Example 137, N^4-(2-chlorobenzyl)-N^2-isopropylquinazoline-2,4-diamine], FC(F)(F)c1ccccc1CNc1nc(Cl)nc2ccccc12 [Example 57, 2-chloro-N-(2-(trifluoromethyl)benzyl)quinazolin-4-amine] is lower in EC50: 1000 to 100000 nM for the first, 10 to 100 nM for the second. The second is the more potent here.

Compared with COc1cnc2nc(N3CCOCC3C)nc(NCc3cccnc3C(F)(F)F)c2c1 (centres unmarked) [Example 304], C[C@H]1COCCN1c1nc(NCc2cccnc2C(F)(F)F)c2cccnc2n1 [Example 210, (S)-2-(3-methylmorpholino)-N-((2-(trifluoromethyl)pyridin-3-yl)methyl)pyrido[2,3-d]pyrimidin-4-amine] is lower in EC50: 1000 to 100000 nM for the first, 1 to 10 nM for the second. The second is the more potent here.

Compared with FCC1CCCN(c2nc(NCc3cccnc3C(F)(F)F)c3cccnc3n2)C1 (centres unmarked) [Example 258, 2-(3-(fluoromethyl)piperidin-1-yl)-N-((2-(trifluoromethyl)pyridin-3-yl)methyl)pyrido[2,3-d]pyrimidin-4-amine], N#CC1CCCN(c2nc(NCc3cccnc3C(F)(F)F)c3cccnc3n2)C1 (centres unmarked) [Example 251] is higher in EC50: < 0.01 nM for the first, 1 to 10 nM for the second. The first is the more potent here.

Compared with CC1(C)CCN1c1nc(NCc2cccnc2C(F)(F)F)c2cccnc2n1 [Example 173, 2-(2,2-dimethylazetidin-1-yl)-N-((2-(trifluoromethyl)pyridin-3-yl)methyl)pyrido[2,3-d]pyrimidin-4-amine], CC1(C#N)CCN(c2nc(NCc3cccnc3C(F)(F)F)c3cccnc3n2)CC1 [Example 250, 4-methyl-1-(4-(((2-(trifluoromethyl)pyridin-3-yl)methyl)amino)pyrido[2,3-d]pyrimidin-2-yl)piperidine-4-carbonitrile] is lower in EC50: 1 to 10 nM for the first, 0.01 to 1 nM for the second. The second is the more potent here.

O=C1CCCN1CCCNc1ncnc2ccsc12 [Example 34, 1-(3-(thieno[3,2-d]pyrimidin-4-ylamino)propyl)pyrrolidin-2-one] and FC(F)(F)c1ccncc1CNc1ncnc2ccsc12 [Example 82] fall in the same range of EC50: 1000 to 100000 nM for the first, 1000 to 100000 nM for the second.

First: FC1(F)CCN(c2nc(NCc3cccnc3C(F)(F)F)c3cccnc3n2)CC1 [Example 197, 2-(4,4-difluoropiperidin-1-yl)-N-((2-(trifluoromethyl)pyridin-3-yl)methyl)pyrido[2,3-d]pyrimidin-4-amine]
Second: FC(F)C1CN(c2nc(NCc3cccnc3C(F)(F)F)c3cccnc3n2)CCO1 (centres unmarked) [Example 282, 2-(2-(difluoromethyl)morpholino)-N-((2-(trifluoromethyl)pyridin-3-yl)methyl)pyrido[2,3-d]pyrimidin-4-amine]
The EC50 of the first is higher: 1 to 10 nM for the first, 0.01 to 1 nM for the second. The second is the more potent here.

FC(F)(F)c1ccccc1CNc1nc(N2CCCC2)nc2ccsc12 [Example 93, 2-(pyrrolidin-1-yl)-N-(2-(trifluoromethyl)benzyl)thieno[3,2-d]pyrimidin-4-amine] and FC(F)(F)c1ccccc1CNc1nc(NC2CC2)nc2ccsc12 [Example 43, N^2-cyclopropyl-N^4-(2-(trifluoromethyl)benzyl)thieno[3,2-d]pyrimidine-2,4-diamine] fall in the same range of EC50: 100 to 1000 nM for the first, 100 to 1000 nM for the second.

First: Fc1ccc(CNc2ncnc3ccsc23)c(C(F)(F)F)c1 [Example 60, N-(4-fluoro-2-(trifluoromethyl)benzyl)thieno[3,2-d]pyrimidin-4-amine]
Second: CN(C)CCNc1nc(NCc2ccccc2C(F)(F)F)c2sccc2n1 [Example 89, N^2-(2-(dimethylamino)ethyl)-N^4-(2-(trifluoromethyl)benzyl)thieno[3,2-d]pyrimidine-2,4-diamine]
The EC50 of the first is lower: 10 to 100 nM for the first, 1000 to 100000 nM for the second. The first is the more potent here.

Cc1nc(N(C)C(C)c2ccccc2C(F)(F)F)c2sc(C3(O)COC3)cc2n1 (centres unmarked) [Example 76] and CC(C)Nc1nc(N2CCCN2c2ccccc2C(F)(F)F)c2cccnc2n1 [Example 189, N-isopropyl-4-(2-(2-(trifluoromethyl)phenyl)pyrazolidin-1-yl)pyrido[2,3-d]pyrimidin-2-amine] fall in the same range of EC50: 1000 to 100000 nM for the first, 1000 to 100000 nM for the second.

First: CC1(C)CCN(c2nc(NCc3ccccc3C(F)(F)F)c3cccnc3n2)CC1 [Example 244, 2-(4,4-dimethylpiperidin-1-yl)-N-(2-(trifluoromethyl)benzyl)pyndo[2,3-d]pyrimidin-4-amine]
Second: FC(F)C1CN(c2nc(NCc3ccccc3C(F)(F)F)c3cccnc3n2)CCO1 (centres unmarked) [Example 284, 2-(2-(difluoromethyl)morpholino)-N-(2-(trifluoromethyl)benzyl)pyrido[2,3-d]pyrimidin-4-amine]
The EC50 of the first is higher: 1 to 10 nM for the first, < 0.01 nM for the second.

Compared with FC(F)(F)c1ncccc1C1CCN1c1nc(N2CCC(Cl)CC2)nc2ncccc12 (centres unmarked) [Example 217, 2-(4-chloropiperidin-1-yl)-4-(2-(2-(trifluoromethyl)pyridin-3-yl)azetidin-1-yl)pyrido[2,3-d]pyrimidine], C[C@@H]1[C@@H](C)OCCN1c1nc(NCc2cccnc2C(F)(F)F)c2cccnc2n1 [Example 270, 2-((2R,3R)-2,3-dimethylmorpholino)-N-((2-(trifluoromethyl)pyridin-3-yl)methyl)pyrido[2,3-d]pyrimidin-4-amine] is higher in EC50: < 0.01 nM for the first, 1 to 10 nM for the second.

Compared with Fc1ccccc1CNc1nc(Cl)nc2ccsc12 [Example 10], FC(F)(F)c1ncccc1CNc1nc(CN2CC(C(F)(F)F)C2)nc2ncccc12 [Example 231, 2-((3-(trifluoromethyl)azetidin-1-yl)methyl)-N-((2-(trifluoromethyl)pyridin-3-yl)methyl)pyrido[2,3-d]pyrimidin-4-amine] is lower in EC50: 1000 to 100000 nM for the first, 100 to 1000 nM for the second.
